Assays:
KIT (A829P) = molecular target: T1, KIT (A829P) (Homo sapiens, UniProt P10721, A829P); test: KINOMEscan competition binding screen, KIT (A829P); details: for remaining binding at 10 µM: read-out: % Ctrl @ 10 μM
T1 construct: purchased Eurofins DiscoverX Corporation
Protocol: (§1) The KINOMEscan™ screening platform (Eurofins DiscoverX Corporation, San Diego, USA) was performed using an active site-directed competition binding assay to quantitatively measure interactions between BK40143, BK40197, BK40195, and BK40196 and more than 450 human kinases and disease relevant mutant variants. […] Screening “hits” were identified by measuring the amount of kinase captured in test (BK40143, BK40197, BK40195, and BK40196) versus control samples by using a quantitative and ultra-sensitive qPCR method that detects the associated DNA label. BK40143, BK40197, BK40195, and BK40196 were screened at 10 μM concentration, and results for primary screen binding interactions were reported as ‘% Ctrl’ (POC), where lower numbers indicate stronger hits and calculated as follows:
(§2) [formula] • test compound=BK40143 or BK40197 or BK40195 or BK40196 • negative control=DMSO (100% Ctrl) • positive control=control compound (0% Ctrl)
(§3) Based on screening data of profiled compounds, a proportional relationship between primary screening results and corresponding compound/target affinities can be described as binding constants (Kd values) for the indicated ranges of percent of control (PoC) values, with tighter binding (higher affinity) interactions associated with lower PoC values, and weaker binding (lower affinity) associated with higher PoC values. Briefly, kinase-tagged T7 phage strains were grown in parallel in 24-well blocks in an E. coli host derived from the BL21 strain. E. coli were grown to log-phase and infected with T7 phage from a frozen stock (multiplicity of infection=0.4) and incubated with shaking at 32° C. until lysis (90-150 minutes). The lysates were centrifuged (6,000×g) and filtered ([…]) to remove cell debris. The remaining kinases were produced in HEK-293 cells and subsequently tagged with DNA for qPCR detection. Streptavidin-coated magnetic beads were treated with biotinylated small molecule ligands for 30 minutes at room temperature to generate affinity resins for kinase assays. The liganded beads were blocked with excess biotin and washed with blocking buffer (SeaBlock (Pierce), 1% BSA, 0.05% Tween 20, 1 mM DTT) to remove unbound ligand and to reduce non-specific phage binding. Binding reactions were assembled by combining kinases, liganded affinity beads, and test compounds in 1× binding buffer (20% SeaBlock, 0.17×PBS, 0.05% Tween 20, 6 mM DTT). Test compounds were prepared as 100× stocks in 100% DMSO and directly diluted into the assay. All reactions were performed in polypropylene 384-well plates in a final volume of 0.02 ml. The assay plates were incubated at room temperature with shaking for 1 hour and the affinity beads were washed with wash buffer (1×PBS, 0.05% Tween 20). The beads were then re-suspended in elution buffer (1×PBS, 0.05% Tween 20, 0.5 μM non-biotinylated affinity ligand) and incubated at room temperature with shaking for 30 minutes. The kinase concentration in the eluates was measured by qPCR.

LUVA cells = test: MC maturation in LUVA cells by flow cytometry (CD117, FceR1); assay type: cell-based, human; details: 100 ng/mL SCF overnight, then 10 nM, 100 nM, 1 μM compound for 48 hours, vs DMSO
Protocol: A human mast cell (MC) line that arose spontaneously from a culture of non-transformed hematopoietic progenitor cells is described in J Allergy Clin Immunol, 2011, 127:815-22, which is incorporated herein by reference. The cells, termed LUVA cells, are an immortalized human MC line that can be maintained without stem cell factor (SCF) and that display high levels of normally signaling c-kit and FceR1.
The LUVA cells (Kerafast, EG1701-FP) were cultured in StemPro-34 serum-free media with 10% nutrient supplement, 1% L-glutamine, and 1% pen/strep and grown under normal atmospheric conditions (5% CO2). The cells were plated and treated with 100 ng/mL of SCF overnight and then treated with DMSO or an ascending dose of either BK40143, BK40196, or BK40197 for 48 hours, before collection and incubation with two flow-conjugated antibodies (PE anti-mouse CD117 (c-kit) and APC/fire 750 anti-mouse FceR1a) and subsequent analysis via flow cytometry. Group differences were compared using unpaired Student's t-tests.

c-kit = molecular target: T2, c-kit (Homo sapiens, UniProt P10721); test: KINASESEEKER competition binding assay, c-kit; details: minimum 8-point curve, duplicate
T2 construct: purchased Luceome Biotechnologies, LLC
Protocol: Kinase assays were performed using KINASESEEKER™ (Luceome Biotechnologies, LLC; Tucson, AZ). KINASESEEKER™ is a homogeneous competition binding assay in which the displacement of an active site-dependent probe by an inhibitor is measured by a change in luminescence signal. Luminescence readout translates into a highly sensitive and robust assay with low background and minimal interference from test compounds. See J. Am. Chem. Soc., 2010, 132, 11727-11735.
Stock solutions of compounds were serially diluted in DMSO to make assay stocks. Prior to initiating IC50 determination, the test compounds were evaluated for false positives against split-luciferase. The compounds were screened against kinases at a minimum of 8 different concentrations in duplicate. For kinase assays, a 24 μL aliquot of lysate containing Cfluc-kinase and Fos-Nfluc was incubated for 2 hours with either 1 μL of DMSO (for no-inhibitor control) or compound solution in DMSO in presence of a kinase specific probe. 80 μL of luciferin assay reagent was added to each solution and luminescence was immediately measured on a luminometer.
The % Inhibition and % Activity Remaining was calculated using the following equation: […]
The % Activity Remaining was plotted against compound concentration and the IC50 was determined for each compound using a minimum 8-point curve.

KIT (V559D, V654A) = molecular target: T3, KIT (V559D, V654A) (Homo sapiens, UniProt P10721, V559D/V654A); test: KINOMEscan competition binding screen, KIT (V559D, V654A); details: for remaining binding at 10 µM: read-out: % Ctrl @ 10 μM
T3 construct: purchased Eurofins DiscoverX Corporation
Protocol: as §1, §2, §3

mast cells (blood) = test: MC maturation in blood of transgenic APP mice by flow cytometry; assay type: in vivo; details: six weeks, vs DMSO
Protocol: 12-month-old transgenic APP mice were injected intraperitoneally with either 5 mg/kg BK40143 or DMSO for six weeks before whole-blood samples were collected into tubes with 1000 U/mL heparin. Blood samples were then treated with the three flow-conjugated antibodies and analyzed for maturation of mast cell progenitors to mature mast cells, as described in Examples 3 and 4. Group differences were compared using an unpaired Student's t-test.
(§4) 12-month-old transgenic APP mice were injected intraperitoneally with either 25 mg/kg BK40195 or DMSO for six weeks before having whole-blood samples collected into tubes containing 1000 U/mL heparin. Blood samples were then treated with the three flow-conjugated antibodies and analyzed for maturation of mast cell progenitors to mature mast cells, as described in Example 5. Differences were compared using an unpaired Student's t-test.
as §4, with “45” for “25”, “BK40197” for “BK40195”

T1 sequence (P10721 26-976 A829P): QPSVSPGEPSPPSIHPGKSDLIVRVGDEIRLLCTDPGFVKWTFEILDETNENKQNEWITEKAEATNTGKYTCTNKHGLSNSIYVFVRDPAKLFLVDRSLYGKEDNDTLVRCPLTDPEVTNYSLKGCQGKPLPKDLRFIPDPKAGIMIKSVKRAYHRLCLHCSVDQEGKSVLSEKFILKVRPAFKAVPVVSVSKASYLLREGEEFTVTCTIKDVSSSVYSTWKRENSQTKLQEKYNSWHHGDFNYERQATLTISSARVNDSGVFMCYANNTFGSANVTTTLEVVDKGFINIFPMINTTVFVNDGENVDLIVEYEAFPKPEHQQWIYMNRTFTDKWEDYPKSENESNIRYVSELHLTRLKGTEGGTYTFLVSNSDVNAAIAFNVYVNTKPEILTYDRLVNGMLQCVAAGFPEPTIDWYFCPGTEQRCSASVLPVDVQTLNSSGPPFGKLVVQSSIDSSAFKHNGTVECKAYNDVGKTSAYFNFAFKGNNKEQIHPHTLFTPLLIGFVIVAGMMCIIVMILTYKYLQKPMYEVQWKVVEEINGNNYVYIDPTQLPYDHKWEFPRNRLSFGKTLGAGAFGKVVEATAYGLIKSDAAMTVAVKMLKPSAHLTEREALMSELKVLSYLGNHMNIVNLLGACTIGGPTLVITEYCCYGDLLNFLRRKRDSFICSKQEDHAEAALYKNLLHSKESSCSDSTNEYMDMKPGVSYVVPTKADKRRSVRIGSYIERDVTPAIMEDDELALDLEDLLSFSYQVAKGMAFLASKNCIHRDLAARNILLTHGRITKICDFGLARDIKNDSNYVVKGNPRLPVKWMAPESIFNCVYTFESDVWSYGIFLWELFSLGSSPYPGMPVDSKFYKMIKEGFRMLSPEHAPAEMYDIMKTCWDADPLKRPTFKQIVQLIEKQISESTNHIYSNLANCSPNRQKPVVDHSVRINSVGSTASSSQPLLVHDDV
T3 sequence (P10721 26-976 V559D/V654A): as the sequence (P10721 26-976 A829P) above, with V534D, V629A, P804A counted along it
T2 sequence (P10721 26-976): as the sequence (P10721 26-976 A829P) above, with P804A counted along it

Compound	inhibition at 10 µM (KIT (A829P)) [%]	remaining binding at 10 µM (KIT (A829P)) [%]	number of immature MCs (CD117 only) compared to mature MCs (CD117 and FceR1) (LUVA cells)	IC50 (c-kit) [nM]	inhibition at 10 µM (KIT (V559D, V654A)) [%]	remaining binding at 10 µM (KIT (V559D, V654A)) [%]	ratio of immature MCs (CD117 only) to mature MCs (CD117 and FceR1) (mast cells (blood); 5 mg/kg intraperitoneal, p=0.03)	ratio of immature MCs (CD117 only) to mature MCs (CD117 and FceR1) (mast cells (blood); 25 mg/kg intraperitoneal, p=0.04)	ratio of immature MCs (CD117 only) to mature MCs (CD117 and FceR1) (mast cells (blood); 45 mg/kg intraperitoneal, p=0.07)
Cc1cccc(-c2cc3nccc(Nc4ccccc4)c3s2)c1 [BK40143]	48	52	significantly increased	750 ± 110	82	18	significantly increased	–	–
COc1cccc(Nc2ccnc3cc(-c4cccc(C)c4)sc23)c1 [BK40195]	93.7	6.3	–	288 ± 23	97.5	2.5	–	significantly increased	–
Cc1cccc(-c2cc3nccc(Nc4cccc(O)c4)c3s2)c1 [BK40196]	79	21	significantly increased	276 ± 35	98.7	1.3	–	–	–
Cc1cccc(-c2cc3nccc(N4CCOCC4)c3s2)c1 [BK40197]	0	100	significantly increased	–	79	21	–	–	significantly increased
